The record followed here is patent US8129355B2, “Ketone ligands for modulating the expression of exogenous genes via an ecdysone receptor complex” (priority 2002, dated 2012).

Molecules are shown by their SMILES.

Series [1] addresses T1, GAL4 DBD (1-147)-CfEcR(DEF)/VP16AD-βRXREF-LmUSPEF (Choristoneura fumiferana, UniProt O77240).
T1 sequence (O77240 191-513): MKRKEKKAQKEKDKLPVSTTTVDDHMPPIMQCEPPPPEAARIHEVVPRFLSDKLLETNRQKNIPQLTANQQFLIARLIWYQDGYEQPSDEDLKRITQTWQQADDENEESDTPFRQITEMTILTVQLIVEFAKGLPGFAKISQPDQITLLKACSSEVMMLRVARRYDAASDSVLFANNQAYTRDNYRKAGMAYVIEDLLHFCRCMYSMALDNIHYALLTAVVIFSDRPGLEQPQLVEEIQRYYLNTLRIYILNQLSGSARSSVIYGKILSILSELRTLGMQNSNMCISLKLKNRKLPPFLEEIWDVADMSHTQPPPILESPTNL
T1 sequence (P28702 296-455 partner limits assumed): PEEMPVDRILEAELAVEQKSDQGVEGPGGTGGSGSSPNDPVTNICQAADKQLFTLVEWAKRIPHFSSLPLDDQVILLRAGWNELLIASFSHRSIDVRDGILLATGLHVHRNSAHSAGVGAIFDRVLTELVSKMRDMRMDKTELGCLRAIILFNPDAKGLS
Kind of series: 27-63 assay: luciferase reporter gene expression in stable CHO cell clone 27-63. The following applies: for Fold Induction Average, 27-63 Assay (33 μM): single dose 33 μM, RLU ligand treated / RLU DMSO treated cells; for 27-63 Rel Max FI: maximum fold induction at any concentration relative to that of GS-E ligand; for CC50: read-out: 27-63 LC50, average, dose response, three-parameter logistic model. Summed up:
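CHO clone stably expressing GAL4 DBD-CfEcR(DEF) and VP16AD-HsRXRβ/LmUSP EF chimera plus a 5XGAL4RE-luciferase reporter; ligands given at 8 concentrations (33 μM to 0.01 μM), luminescence read 48 h after treatment. Fold induction versus DMSO cells; BC50 from three-parameter logistic fit.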
Background: In a reporter assay the amount or activity of a reporter protein is the signal.

In series [2] the target is T2, Gal4 DBD/AaEcR (DEF) with VP16-βRXR-E (Aedes aegypti, UniProt P49880).
T2 construct: The wildtype D, E, and F domains from mosquito Aedes aegypti EcR (“AaEcR-DEF”); expressed in transfected cells; host or cells: 3T3 cells, transient transfection (Superfect)
T2 sequence (P28704 286-520 A311G/G315S/G445S/I449V): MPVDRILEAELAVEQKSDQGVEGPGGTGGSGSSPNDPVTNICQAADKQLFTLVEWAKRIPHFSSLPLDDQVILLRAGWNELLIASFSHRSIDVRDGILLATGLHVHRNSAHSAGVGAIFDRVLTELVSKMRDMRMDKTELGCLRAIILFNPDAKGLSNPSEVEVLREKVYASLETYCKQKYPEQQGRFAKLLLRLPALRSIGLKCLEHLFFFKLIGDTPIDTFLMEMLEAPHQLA
T2 sequence (P49880 405-776): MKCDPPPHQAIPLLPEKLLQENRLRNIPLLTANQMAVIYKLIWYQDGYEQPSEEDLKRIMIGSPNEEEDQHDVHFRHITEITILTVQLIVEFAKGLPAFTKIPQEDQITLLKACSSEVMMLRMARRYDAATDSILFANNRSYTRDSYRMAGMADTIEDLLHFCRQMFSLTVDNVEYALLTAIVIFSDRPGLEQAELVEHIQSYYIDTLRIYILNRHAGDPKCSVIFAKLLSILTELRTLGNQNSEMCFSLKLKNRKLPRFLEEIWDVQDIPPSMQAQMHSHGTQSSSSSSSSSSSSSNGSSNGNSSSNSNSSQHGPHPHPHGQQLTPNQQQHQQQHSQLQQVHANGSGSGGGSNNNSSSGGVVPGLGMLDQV
Kind of series: cell-based. The following applies: for Fold Induction Average, AA_3T3 Assay (33 μM): single dose 33 μM, RLU ligand treated / RLU DMSO treated cells; for LC50 (half-maximal ligand concentration for reporter induction): average, dose response 33 μM to 0.01 μM, three-parameter logistic model, read-out: AA_3T3 LC50; for AA_3T3 Rel Max FI: maximum fold induction at any concentration relative to that of GS-E ligand. The class given is cell-based. The method, then: 3T3 cells were trypsinized and plated at 2.5×10^3 cells/well on a 96-well plate. After incubation for 24 h at 37° C. under 5% CO2, cells were transfected with the Gal4 DBD/AaEcR (DEF) gene expression cassette and the reporter plasmid, pFRLuc, containing a 5XGAL4 response element and the firefly luciferase gene in serum free media using Superfect (Qiagen). After transfection for 4 h at 37° C., the cells were treated with ligand in serum media. […] Single dose testing was performed at 33 μM.

Turning to `CCOC(=O)C(=O)N1CCCC(NC(=O)c2cccc(OC)c2C)(C(=O)c2cc(C)cc(C)c2)C1` (racemic) [Example 154], the “Fold Induction Average, 27-63 Assay (33 μM)” value in series [1] worked out at 2. For the same compound, in series [2], the “Fold Induction Average, AA_3T3 Assay (33 μM)” value is 2.
Turning to `COc1ccccc1C(=O)C1(NC(=O)c2cccc(OC)c2C)CCCCCC1` [Example 70], in series [1], the “27-63 Rel Max FI” value turned out to be 0.66 and the CC50 came to 3.36 µM. Also, in series [2], the LC50 (half-maximal ligand concentration for reporter induction) was 3.21 µM; the “AA_3T3 Rel Max FI” value is reported as 0.48; the “Fold Induction Average, AA_3T3 Assay (33 μM)” value came out at 1878.
With `COc1cccc(C(=O)NC2(C(=O)c3cc(C)cc(C)c3)CCCCCC2)c1C` [Example 71], in series [1], the “27-63 Rel Max FI” value is given as 0.88 and the CC50 is 2.97 µM. In addition, in series [2], the LC50 (half-maximal ligand concentration for reporter induction) was 8.18 µM; the “AA_3T3 Rel Max FI” value turned out to be 0.42; the “Fold Induction Average, AA_3T3 Assay (33 μM)” value is 1277.
On to `COc1ccccc1C(=O)C(C)(NC(=O)c1cccc(OC)c1C)c1ccc(F)cc1` (stereo not drawn) [Example 72], for which the “Fold Induction Average, 27-63 Assay (33 μM)” value in series [1] stood at 1. Moreover, the “Fold Induction Average, AA_3T3 Assay (33 μM)” value in series [2] worked out at 3.
On the same counts, the results for `COc1ccccc1C(=O)C(C)(C)NC(=O)c1cccc(OC)c1C` [Example 74] are 9 and 4.
`COc1cccc(C(=O)NC(C)(C)C(=O)c2cc(C)cc(C)c2)c1C` [Example 75]: in series [1], the “27-63 Rel Max FI” value is recorded as 0.29 and the CC50 is 42 µM. Moreover, in series [2], the LC50 (half-maximal ligand concentration for reporter induction) is greater than 33 µM; the “AA_3T3 Rel Max FI” value worked out at 0.02; the “Fold Induction Average, AA_3T3 Assay (33 μM)” value is 161.
For `CCC(CC)(NC(=O)c1cccc(OC)c1C)C(=O)c1ccc(C)cc1` [Example 77], in series [1], the “27-63 Rel Max FI” value worked out at 0.00 and the CC50 is greater than 33 µM. For the same compound, the “Fold Induction Average, AA_3T3 Assay (33 μM)” value in series [2] turned out to be 1.
In the case of `CCC(CC)(NC(=O)c1cccc(OC)c1C)C(=O)c1ccccc1` [Example 78], in series [1], the “27-63 Rel Max FI” value is 0.41 and the CC50 came out at 6.54 µM. In series [2], the LC50 (half-maximal ligand concentration for reporter induction) is greater than 33 µM; the “AA_3T3 Rel Max FI” value is given as 0.00; the “Fold Induction Average, AA_3T3 Assay (33 μM)” value amounted to 14.
On the same counts, the results for `COc1cccc(C(=O)NC2(C(=O)c3ccc(C)cc3)CCCC2)c1C` [Example 79] are 0.32, 4.38 µM, greater than 33 µM, 0.00 and 12.
For the compound `O=C(NC1(C(=O)c2ccccc2)CCCC1)c1ccccc1` [Example 139], in series [1], the “27-63 Rel Max FI” value is reported as 0.00 and the CC50 is greater than 33 µM. Further, the “Fold Induction Average, AA_3T3 Assay (33 μM)” value in series [2] was 2.
As for `COc1cccc(C(=O)NC2(C(=O)c3ccccc3)CCCC2)c1` [Example 141], in series [1], the “27-63 Rel Max FI” value is reported as 0.00 and the CC50 was greater than 33 µM. The “Fold Induction Average, AA_3T3 Assay (33 μM)” value in series [2] is listed as 1.
As to `CCc1c(OC)cccc1C(=O)NC1(C(=O)c2cc(C)cc(C)c2)CCCCC1` [Example 143], in series [1], the “27-63 Rel Max FI” value is listed as 0.91 and the CC50 turned out to be 1.5 µM. In series [2], the LC50 (half-maximal ligand concentration for reporter induction) was found to be 2.81 µM; the “AA_3T3 Rel Max FI” value is on record as 0.59; the “Fold Induction Average, AA_3T3 Assay (33 μM)” value is reported as 1929.
With `CCc1c(OC)cccc1C(=O)NC1(C(=O)c2cc(C)cc(C)c2)CCCC1` [Example 144], in series [1], the “27-63 Rel Max FI” value was 0.93 and the CC50 stood at 1.52 µM. In series [2], the LC50 (half-maximal ligand concentration for reporter induction) was 2.67 µM; the “AA_3T3 Rel Max FI” value was 0.70; the “Fold Induction Average, AA_3T3 Assay (33 μM)” value is listed as 2339.
`COc1cccc(C(=O)NC2(C(=O)c3cc(C)cc(C)c3)CCN(C(C)=O)CC2)c1C` [Example 149]: the fold induction at 33 µM in series [1] (CHO, read-out: Fold Induction Average, 27-63 Assay (33 μM)) worked out at 1; in series [2] (NIH3T3, read-out: Fold Induction Average, AA_3T3 Assay (33 μM)) it was 2.
Regarding `CCNC(=O)N1CCC(NC(=O)c2cccc(OC)c2C)(C(=O)c2cc(C)cc(C)c2)CC1` [Example 157], in series [1], the “Fold Induction Average, 27-63 Assay (33 μM)” value is listed as 1. The “Fold Induction Average, AA_3T3 Assay (33 μM)” value in series [2] turned out to be 1.
